Assay results as given in patent US20170016019A1, “Plants Having Enhanced Pathogen Resistance and Methods of Modulating Pathogen Resistance in Plants” (The Governing Council of the University of Toronto, priority 2014, published 2017).

How the values were obtained:
[1] = test system: AtTTM2; experiment: Quantitative real-time PCR of AtTTM2 expression after SA, BTH or flg22 treatment; type: in vivo, Arabidopsis thaliana
Procedure: (§1) Arabidopsis (Arabidopsis thaliana accession Columbia), canola (Brassica napus var. Westar), and soybean (Glycine max var. Harasoy) plants were grown in Sunshine Mix at 22° C., 60% relative humidity (RH), and ˜140 μE m^−2 s^−1 with a 9h-photoperiod. 7-10 day-old Arabidopsis plants were infected with Hyaloperonospora arabidopsidis (Hpa). Spore counts of 1×10^5 conidiospores ml^−1, 8×10^5 cells ml^−1, and 2×10^5 cells ml^−1 were used for Noco2, Emco5, and Emwa1 isolates, respectively. Seedlings were then infected via drop inoculation and left at 16° C., >90% RH for 7-10 days before disease assessment. 4-week-old plants were infiltrated with 1×10^5 CFU ml^−1 of the bacterial pathogen, Pseudomonas syringae tomato DC3000 (AvrRps4) and bacterial growth was assessed at 0 and 3 days post infiltration.
(§2) RNA extraction was carried out using the TRIzol reagent (Life Technologies, Carlsbad, Calif.), according to the manufacturer's instructions. Reverse transcriptase (RT)-PCR was performed using cDNA generated by SuperScript II Reverse Transcriptase (Life Technologies, Carlsbad, Calif.) according to the manufacturer's instructions. Expression of PR1 was visualized by gel electrophoresis of samples after RT-PCR with PR1 primers (AtPR1-F, AtPR1-R).
(§3) Quantitative real-time PCR was performed using Fast SYBR Green Master Mix (Life Technologies, Carlsbad, Calif.). […]

[2] = test system: PR1; experiment: Quantitative real-time PCR of PR1 gene expression after SA or BTH treatment; type: in vivo, Arabidopsis thaliana; settings: Col wild type
Procedure: as §1, §2, §3

[3] = test system: BnTTM2a, BnTTM2b; experiment: qPCR of TTM2 orthologues in canola after BTH treatment; type: in vivo, Brassica napus; settings: canola var. Westar, 200 μM BTH, 48hrs
Procedure: as §1
(§4) Quantitative real-time PCR was performed using Fast SYBR Green Master Mix (Life Technologies, Carlsbad, Calif.). The expression of Arabidopsis genes were normalized to the expression of AtEF1A (elongation factor1-alpha) while the expression of soybean and canola genes were normalized to GmEF1B (elongation factor1-beta) and BnUBC21 (ubiquitin conjugating enzyme21), respectively.
(§5) 7- to 10-day old Arabidopsis seedlings were treated with 100 μM SA or 200 μM BTH. […]

[4] = test system: BdTTM2; experiment: Expression of TTM2 in Brachypodium distachyon after BTH treatment; type: in vivo; settings: 200 uM BTH, 48 hours
Procedure: (§6) Tomato, Cucumber, Pepper and Petunia plants for BTH treatment were grown in Sunshine Mix at 22° C., 60% relative humidity, and approximately 140 uE m^−2 s^−1 with a 9-h photoperiod. Rice and Brachypodium distachyon plants for BTH treatment were grown in Rice Mix. tomato plants for Pseudomonas infection were grown in Sunshine Mix, at 22° C. 60% relative humidity, and natural light condition.
(§7) FIG. 26 illustrates expression of OsTTM2 in 4 week old rice (Oryza sativa) plant and BdTTM2 in the model monocotyledonous plant Brachypodium distachyon 48 hours after BTH (200 uM) treatment. Solution was sprayed with the addition of 0.025% (v/v) Silwet. Expression of both genes was suppressed similar to Arabidopsis TTM2.

[5] = test system: GmTTM2a/b; experiment: qPCR of TTM2 orthologues in soybean after BTH treatment; type: in vivo, Glycine max; settings: soybean var. Harasoy, 200 μM BTH, 48hrs
Procedure: as §1, §4, §5

[6] = test system: PhTTM2A and B; experiment: Expression of TTM2 in Petunia after BTH treatment; type: in vivo, Petunia hybrida; settings: 4-5 week old Petunia, 200 uM BTH, 48 hours
Procedure: as §6
FIG. 25 illustrates expression of PhTTM2A and B in approximately 4-5 week old Petunia (Petunia hybrida) 48 hours after BTH (200 uM) treatment. Solution was sprayed with the addition of 0.025% (v/v) Silwet. Expression of both genes was suppressed similar to Arabidopsis TTM2.

[7] = test system: CaTTM2; experiment: Expression of TTM2 in pepper after BTH treatment; type: in vivo, Capsicum annuum; settings: 4-5 week old pepper, 200 uM BTH, 48 hours
Procedure: as §6
FIG. 24b illustrates expression of CaTTM2 in approximately 4-5 week old pepper (Capsicum annuum) 48 hours after BTH (200 uM) treatment. Solution was sprayed with the addition of 0.025% (v/v) Silwet. Expression of the gene was suppressed similar to Arabidopsis TTM2.

[8] = test system: CsTTM2; experiment: Expression of TTM2 in cucumber after BTH treatment; type: in vivo, Cucumis sativus; settings: 4-5 week old cucumber, 200 uM BTH, 48 hours
Procedure: as §6
FIG. 24a illustrates expression of CsTTM2 in approximately 4-5 week old cucumber (Cucumis sativus) 48 hours after BTH (200 uM) treatment. Solution was sprayed with the addition of 0.025% (v/v) Silwet. Expression of the gene was suppressed similar to Arabidopsis TTM2.

[9] = test system: SITTM2A and B; experiment: Expression of TTM2 in tomato after BTH treatment; type: in vivo, Solanum lycopersicum; settings: 4-5 week old tomato, 200 μM BTH, 48 hours
Procedure: as §6
FIG. 23 illustrates expression of SITTM2A and B in approximately 4-5 week old tomato (Solanum lycopersicum) 48 hours after with and without BTH (200 μM) treatment. Solution was sprayed with the addition of 0.025% (v/v) Silwet. Expression of both genes was suppressed similar to Arabidopsis TTM2.

[10] = test system: OsTTM2; experiment: Expression of TTM2 in rice after BTH treatment; type: in vivo, Oryza sativa; settings: 4 week old rice, 200 uM BTH, 48 hours
Procedure: as §6, §7

Structure (SMILES) | AtTTM2 down-regulation after SA treatment ([1]; Col wild type plants sprayed with 100 μM SA, 24h) | PR1 gene expression after SA treatment ([2]; 100 μM SA, 24h) | AtTTM2 down-regulation after BTH treatment ([1]; Col wild type, 200 μM BTH, 48h) | Expression of BnTTM2a, BnTTM2b in response to BTH [3] | PR1 gene expression after BTH treatment ([2]; 200 μM BTH, 48h) | Expression of BdTTM2 after BTH treatment [4] | Expression of GmTTM2a/b in response to BTH [5] | Expression of PhTTM2A and B after BTH treatment [6] | Expression of CaTTM2 after BTH treatment [7] | Expression of CsTTM2 after BTH treatment [8] | Expression of SITTM2A and B after BTH treatment [9] | Expression of OsTTM2 after BTH treatment [10]
O=C(O)c1ccccc1O [SA, salicylic acid] | more than 2 fold | increase in PR1 gene expression |  |  |  |  |  |  |  |  |  | 
c1ccc2snnc2c1 [BTH, benzothiadiazole] |  |  | down-regulation was also observed | similarly down-regulated | increase in PR1 gene expression | suppressed | similarly down-regulated | suppressed | suppressed | suppressed | suppressed | suppressed
